Experimental data taken from ChEMBL document CHEMBL1150107, “Isolation and in vitro antiplasmodial activities of alkaloids from Teclea trichocarpa: in vivo antimalarial activity and X-ray crystal structure of normelicopicine” (J Nat Prod, 2002).

What was measured:
[1] = tested on: Plasmodium falciparum; assay: Antiplasmodial activity against chloroquine-sensitive Plasmodium falciparum HB3 after 48 hrs by LDH reporter activity; assay type: functional, organism-based; settings: HB3, 48 h
[2] = tested on: Plasmodium falciparum; assay: Antiplasmodial activity against chloroquine-resistant Plasmodium falciparum K1 after 48 hrs by LDH activity; assay type: functional, organism-based; settings: K1, 48 h
[3] = tested on: Plasmodium berghei; assay: Antimalarial activity as reduced parasitaemia at day 5 against Plasmodium berghei ANKA infected in BALB/c mice (Mus musculus) at 10 mg/kg/day intraperitoneal dose over 4 days; assay type: functional; set-up: scale not given: the % may be the effect or the level left
[4] = tested on: Plasmodium berghei; assay: Antimalarial activity as reduced parasitaemia at day 5 against Plasmodium berghei ANKA infected BALB/c mice (Mus musculus) at 25 mg/kg/day intraperitoneal dose over 4 days; assay type: functional; set-up: scale not given: the % may be the effect or the level left
[5] = tested on: KB; assay: Cytotoxicity against human KB cells by alamar blue assay; assay type: cell-based
[6] = Selectivity index, ratio of IC50 for human KB cells to IC50 for chloroquine-sensitive Plasmodium falciparum HB3; assay type: toxicity, cell-based; settings: read-out: Ratio IC50
[7] = Selectivity index, ratio of IC50 for human KB cells to IC50 for chloroquine-resistant Plasmodium falciparum K1; assay type: toxicity, cell-based; settings: read-out: Ratio IC50

| SMILES | IC50 [1] | IC50 [2] | further results |
| --- | --- | --- | --- |
| COc1ccc2c(=O)c3c(OC)c4c(cc3n(C)c2c1OC)OCO4 | 32.3 µM | 56.9 µM | – |
| COc1cc2c(c(O)c1OC)c(=O)c1ccccc1n2C [ARBORININE] | 3.85 µM | 9.34 µM | – |
| CCN(CC)CCCC(C)Nc1ccnc2cc(Cl)ccc12.O=P(O)(O)O.O=P(O)(O)O (stereo not drawn) [CHLOROQUINE PHOSPHATE] | – | – | Activity [3]: 100% |
| COc1c(OC)c(OC)c2c(c1OC)c(=O)c1ccccc1n2C [MELICOPICINE] | > 100 µM | > 100 µM | – |
| COc1c(OC)c(OC)c2c(c1O)c(=O)c1ccccc1n2C [NORMELICOPICINE] | 8.25 µM | 14.7 µM | Activity [4]: 32.1%; IC50 [5]: > 328 µM; selectivity ratio [6]: 22; selectivity ratio [7]: 40 |
| COc1cc([C@@H]2c3cc4c(cc3[C@H](O)[C@H]3COC(=O)[C@H]23)OCO4)cc(OC)c1OC [PODOFILOX] | – | – | IC50 [5]: 0.0048 µM |
| COc1ccc2c(OC)c3ccoc3nc2c1OC [SKIMMIANINE] | 47.5 µM | 59 µM | – |
| COc1c2c(cc3c1c(=O)c1cccc(OC)c1n3C)OCO2 [TECLEANTHINE] | 23.2 µM | 53 µM | – |
